Laboratory results from patent US20250302039A1, “USE OF N-SUBSTITUTED PYRROLIDONES TO PROMOTE THE PENETRATION OF AGROCHEMICAL ACTIVE AGENTS” (priority 2016, published 2025).

How the values were obtained:
Format in all cases: physicochemical
[1] = Microscopy studies: crystallization behavior after 18 hours of drying; conditions: 1 g/L; 1 μL on silanized glass slide; 18 hours of drying at 25° C., 53% relative air humidity; 400× magnification
Description: The following solutions 1) to 6) were produced:
Solution of 1 g of rynaxypyr in one liter of a mixture of acetone and distilled water at a weight ratio of acetone:distilled water of 30:70.
Solution of 1 g of rynaxypyr in one liter of a mixture of N-(n-butyl)-2-pyrrolidone and distilled water at a weight ratio of N-(n-butyl)-2-pyrrolidone:distilled water of 30:70.
Solution of 1 g of emamectin benzoate in one liter of a mixture of acetone and distilled water at a weight ratio of acetone:distilled water of 30:70.
Solution of 1 g of emamectin benzoate in one liter of a mixture of N-(n-butyl)-2-pyrrolidone and distilled water at a weight ratio of N-(n-butyl)-2-pyrrolidone:distilled water of 30:70.
Solution of 1 g of abamectin in one liter of a mixture of acetone and distilled water at a weight ratio of acetone:distilled water of 30:70.
Solution of 1 g of abamectin in one liter of a mixture of N-(n-butyl)-2-pyrrolidone and distilled water at a weight ratio of N-(n-butyl)-2-pyrrolidone:distilled water of 30:70.
The procedure as described hereinafter was followed with solutions 1) to 6) (see steps A) to C)): • A) 1 μL of the above-described solutions 1) to 6) in each case was applied to silanized glass microscope slides. • B) The solutions were left to stand on the microscope slides at a temperature of 25° C. and 53% relative air humidity over 18 hours, in the course of which drying took place. • C) Thereafter, the microscope slides were assessed and photos were taken at the original edge of the droplets with 400-fold magnification.
The photos for the active agrochemical ingredient abamectin are shown in FIG. 2A and FIG. 2B, those for the active agrochemical ingredient rynaxapyr in FIG. 3A and FIG. 3B, and those for the active agrochemical ingredient emamectin benzoate in FIG. 4A and FIG. 4B.

[2] = Miscibility of N-(n-butyl)-2-pyrrolidone with solvents; conditions: with water, propylene glycol, polyethylene glycol, dimethylamide, Solvesso® 200 ND, alkylated vegetable oil or mineral oils
Description: In addition, the N-substituted pyrrolidones of the formula (I) can also be combined advantageously with various water-immiscible solvents and may serve as cosolvents in solvent-containing formulations, for example in emulsion concentrates (EC), oil dispersions (OD), suspoemulsions (SE) and microemulsions (ME).

[3] = Solutions of active ingredients in N-(n-butyl)-2-pyrrolidone; conditions: solvent N-(n-butyl)-2-pyrrolidone; based on the total weight of the solution

Compound	crystallization behavior in N-(n-butyl)-2-pyrrolidone/water (30:70) solution [1]	crystallization behavior in acetone/water (30:70) solution [1]	miscibility with solvents [2]	amount of active ingredient in solutions prepared with N-(n-butyl)-2-pyrrolidone [3]
CNC(=O)c1cc(Cl)cc(C)c1NC(=O)c1cc(Br)nn1-c1ncccc1Cl [rynaxypyr]	remaining dissolved	crystallized out		
abamectin	remaining dissolved	crystallized out		
emamectin benzoate	remaining dissolved	crystallized out		
CCCCN1CCCC1=O [N-(n-Butyl)-2-pyrrolidone, N-(n-butyl)-2-pyrrolidone]			miscible in all ratios	
OC(Cc1ccccc1Cl)(Cn1nc[nH]c1=S)C1(Cl)CC1 (centres unmarked) [prothioconazole]				greater than 35 % by weight
